The values that follow come from US9181244B1, “Substituted pyrido[2,3-c]pyridazin-4(1H)-ones as tumor necrosis factor alpha and phosphodiesterase 4 inhibitors” (Xuanzhu Pharma Co., Ltd., priority 2014, dated 2015).

What is called IC50 is the concentration at which inhibition is half-maximal. A higher IC50 goes with weaker potency.

In one assay the target is PDE-4B1 (Homo sapiens, UniProt Q07343). The assay can be described thus: Lance cAMP assay, PDE-4B1 inhibition. It counts as biochemical. Conditions: PDE4B1 0.18 nM, 20 nM cAMP, 90 min room temperature. The protocol: (§1) Experimental Methods: Lance cAMP Assay:
(§2) Test samples were precisely weighed, added to and dissolved in DMSO, mixed sufficiently so as to reach 100 μM. The above mother solution was then diluted with DMSO to reach 1 μM, and then diluted 4 times to reach 0.0038 nM.
(§3) To 384 well plate were added 2.5 μl of substrate 20 nM cAMP and 50 nl of compound DMSO solution, then added 2.5 μl of PDE enzyme (PDE4B1 0.18 nM, PDE4D3 0.024 nM) buffer solution (1×HBSS, 5 mM Hepes pH 7.4, 3 mM MgCl2, 0.1% BSA). After incubation at room temperature for 90 min, 5 μl of Alexa Fluor® 647-anti cAMP antibody was added and incubated for 30 min, 10 μl of detection reagent was added and incubated for 60 min, then its LANCE signal was detected under 665 nm, inhibition rate was calculated by the following formulation, and IC50 values were calculated from inhibition rate using XLfit. Inhibition rate=[signal value (MAX)−signl value (sample)]×100/[signal value (MAX)−signal value (MIN)]
(§4) Notation: MAX: blank control without enzyme; MIN: blank control without compound.
For orientation: Cyclic AMP is a second messenger, typically raised through Gs and lowered through Gi signalling.

In a further assay the target is PDE-4D3 (Homo sapiens, UniProt Q08499). Briefly: Lance cAMP assay, PDE-4D3 inhibition. It counts as biochemical. The following applies: PDE4D3 0.024 nM, 20 nM cAMP, 90 min room temperature. Here is the method:
as §1, §2, §3, §4

A further assay relates to TNF-α. The assay can be described thus: Inhibition activity of TNF-α in whole blood test (LPS-stimulated, ELISA). It counts as cell-based. Conditions: human whole blood diluted 1:1 with DPBS, lipopolysaccharide 100 ng/ml, overnight. Here is the method: Experiment 2: Measurement of Inhibition Activity of TNF-α in Whole Blood Test
Fresh blood was collected from health human body using heparin sodium tubes. In Grade II Bio-safety Cabinet, whole blood was diluted in the ratio of 1:1 with DPBS (Dulbecco's Phosphate Buffered Saline). 100 μl of the diluted blood samples were taken and added to each of wells of a 96-well plate. 0.5 μl of compound solution was added to each well. The compound was formulated with dimethyl sulfoxide. The 96-well plate was placed in CO2 incubator and incubated for 30 min, then lipopolysaccharide in final concentration of 100 ng/ml was added, and incubated overnight. The 96-well plate was shaked for homogenization, and from each well 10 μl of solution was taken and transferred to another 96-well plate for ELISA to measure TNF-α content. The following formula was used to calculate inhibition rate, and the inhibition rate was used for calculation of IC50 value with XLfit. Inhibition rate=[signal value (MAX)−signal value (sample)]×100/[signal value (MAX)−signal value (MIN)]
Notation: MAX represents blank control stimulated with only lipopolysaccharide; MIN represents positive control with 1 μmol/l of dexamethasone.
Background: An ELISA detects its analyte on a solid surface through an enzyme-linked reagent.

The next assay relates to PDE4D, PDE4B. The following applies: some studies have shown; cited from earlier work.

PDE-4D3, sequence (Q08499 1-673 isoform Q08499-2): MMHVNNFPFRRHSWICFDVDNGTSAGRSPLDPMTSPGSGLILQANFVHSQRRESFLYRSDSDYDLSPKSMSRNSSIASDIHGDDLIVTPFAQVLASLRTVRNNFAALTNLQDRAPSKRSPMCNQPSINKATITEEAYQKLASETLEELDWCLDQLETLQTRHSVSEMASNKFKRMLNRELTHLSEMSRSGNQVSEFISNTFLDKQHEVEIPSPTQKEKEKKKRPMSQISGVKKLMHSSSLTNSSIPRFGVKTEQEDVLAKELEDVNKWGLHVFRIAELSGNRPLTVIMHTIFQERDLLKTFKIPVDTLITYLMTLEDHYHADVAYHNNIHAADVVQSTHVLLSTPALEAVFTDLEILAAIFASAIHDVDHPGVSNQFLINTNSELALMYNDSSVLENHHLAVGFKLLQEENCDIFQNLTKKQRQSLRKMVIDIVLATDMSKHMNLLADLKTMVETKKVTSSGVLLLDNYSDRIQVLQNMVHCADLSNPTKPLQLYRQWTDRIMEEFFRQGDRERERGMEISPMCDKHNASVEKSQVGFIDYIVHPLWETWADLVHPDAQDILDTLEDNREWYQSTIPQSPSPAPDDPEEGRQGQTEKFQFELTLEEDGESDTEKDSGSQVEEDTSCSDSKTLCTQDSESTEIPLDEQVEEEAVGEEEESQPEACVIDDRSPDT
PDE-4B1, sequence (Q07343 whole entry, species assumed): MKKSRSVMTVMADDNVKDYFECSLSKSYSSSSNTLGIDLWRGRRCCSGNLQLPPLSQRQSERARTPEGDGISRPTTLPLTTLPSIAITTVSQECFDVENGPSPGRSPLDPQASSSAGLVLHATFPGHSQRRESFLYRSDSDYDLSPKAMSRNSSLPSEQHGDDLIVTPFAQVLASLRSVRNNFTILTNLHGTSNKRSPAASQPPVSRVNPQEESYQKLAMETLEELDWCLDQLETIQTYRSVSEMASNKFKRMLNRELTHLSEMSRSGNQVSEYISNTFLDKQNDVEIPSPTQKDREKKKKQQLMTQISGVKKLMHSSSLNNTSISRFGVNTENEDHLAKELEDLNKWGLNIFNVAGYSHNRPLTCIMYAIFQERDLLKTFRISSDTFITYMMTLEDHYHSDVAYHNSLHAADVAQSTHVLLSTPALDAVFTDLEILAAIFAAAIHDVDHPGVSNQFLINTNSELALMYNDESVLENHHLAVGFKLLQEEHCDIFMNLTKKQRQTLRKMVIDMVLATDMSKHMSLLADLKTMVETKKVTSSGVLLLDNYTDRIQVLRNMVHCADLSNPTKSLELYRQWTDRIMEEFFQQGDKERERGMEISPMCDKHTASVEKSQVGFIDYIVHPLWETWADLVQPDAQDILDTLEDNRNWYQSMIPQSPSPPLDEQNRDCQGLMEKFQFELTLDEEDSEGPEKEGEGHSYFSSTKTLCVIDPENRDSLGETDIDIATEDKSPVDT

On to `O=C(NC1CC1)c1nn(-c2cccc(Oc3cccnc3)c2)c2ncccc2c1=O` [Compound 3, N-cyclopropyl-4-oxo-1-(3-(pyridin-3-yloxy)phenyl)-1,4-dihydropyridino[2,3-c]pyridazine-3-carboxamide], for which the IC50 on PDE-4B1 stood at 305 nM; against PDE-4D3, 358 nM.
In turn, `C[C@@H]1C[C@H]2[C@@H]3CCC4=CC(=O)C=C[C@]4(C)[C@@]3(F)[C@@H](O)C[C@]2(C)[C@@]1(O)C(=O)CO` [Dexamethasone, reference compound] registered an IC50 in the assay with TNF-α of 3.3 nM.
As to `O=C(NC1CC1)c1nn(-c2cccc(C#Cc3cccnc3)c2)c2ncccc2c1=O` [Compound 1, N-cyclopropyl-4-oxo-1-[3-(pyridin-3-ylethynyl)phenyl]-1,4-dihydropyridino[2,3-c]pyridazine-3-formamide], the figures for the IC50 on PDE-4B1, against PDE-4D3 and in the assay on TNF-α were 2.68 nM, 2.19 nM and 51 nM, respectively.
As to `O=C(NC1CC1)c1nn(-c2cccc(C#Cc3ccc[n+]([O-])c3)c2)c2ncccc2c1=O` [Nitrogen oxide of Compound 1, 3-[[3-[3-(cyclopropylcarbamoyl)-4-oxo-pyridino[2,3-c]pyridazine-1(4H)-yl]phenyl]ethynyl]pyridine-1-oxide], the IC50 is 28.1 nM at PDE-4B1, 18.9 nM against PDE-4D3 and 109 nM in the assay on TNF-α.
Take `O=C(NC1CC1)c1nn(-c2cccc(Sc3cccnc3)c2)c2ncccc2c1=O` [Compound 2, N-cyclopropyl-4-oxo-1-[3-(pyridin-3-ylthio)phenyl]-1,4-dihydropyridino[2,3-c]pyridazine-3-carboxamide]: the results for the IC50 at PDE-4B1 and at PDE-4D3 were 161 nM and 250 nM, respectively.
On to `O=C(NC1CC1)c1nn(-c2cccc(Oc3ccc[n+]([O-])c3)c2)c2ncccc2c1=O` [Nitrogen oxide of Compound 3], for which the IC50 against PDE-4B1 turned out to be 526 nM; against PDE-4D3, 643 nM.
As to Cilomilast, the “activity to PDE4D compared with activity to PDE4B” value with PDE4D, PDE4B was 10 time.
As for Roflumilast, the “activity to PDE4D compared with activity to PDE4B” value in the assay on PDE4D, PDE4B is “equivalent activity”.
For `O=C(NC1CC1)c1cn(-c2cccc(C#Cc3ccc[n+]([O-])c3)c2)c2ncccc2c1=O` [MK-0873, reference compound], the values for the IC50 against PDE-4B1, against PDE-4D3 and in the assay with TNF-α were 5.59 nM, 4.58 nM and 40.3 nM, respectively.
